We go through four compounds from patent US20230167088A1, “1-PYRAZINYLPYRAZOLYL-3-OXYALKYL ACIDS AND THEIR DERIVATIVES, AND THEIR USE FOR CONTROL OF UNDESIRED PLANT GROWTH” (BAYER AKTIENGESELLSCHAFT, priority 2020, published 2023).

The structures appear in SMILES notation.

Experiment [1] relates to MATIN. Kind of experiment: Herbicidal pre-emergence action 2b (doubly sown, 1280 g/ha). It counts as in vivo, Matricaria inodora. To be noted: doubly sown pots, dosage 1280 g/ha, visual scoring after about 3 weeks. Put shortly:
(§1)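 Weed seeds sown in sandy loam, two species per pot, covered with soil; compounds as WP or EC applied to soil surface as aqueous suspension/emulsion with 0.5% additive at 600 L/ha water. Greenhouse growth; visual % activity vs untreated controls after about 3 weeks (100% = dead, 0% = like control).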

The test system of experiment [2] is VERPE. Nature of the experiment: Herbicidal post-emergence action 1a (greenhouse pots, visual rating). It counts as in vivo, Veronica persica. The following applies: visual rating about 3 weeks after treatment. The gist of the method: (§2)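 Weeds and crops sown in sandy loam in greenhouse pots were sprayed post-emergence at the one-leaf stage (2–3 weeks after sowing) with WP or EC formulations plus 0.5% additive at 600 l/ha water, 320 and/or 80 g/ha. About 3 weeks later damage was rated visually against untreated controls (0% = no effect, 100% = dead).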

The next experiment concerns POLCO. The experiment is described as above. It counts as in vivo, Polygonum convolvulus. The following applies: visual rating about 3 weeks after treatment. Put shortly: as §2
For a further experiment, the system named is DIGSA. Kind of experiment: Herbicidal pre-emergence action 2a (greenhouse pots, visual scoring). In kind it is in vivo, Digitaria sanguinalis. To be noted: dosage 320 g/ha, visual scoring after about 3 weeks. Put shortly:
(§3)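 Pre-emergence greenhouse pot test: WP or EC formulations sprayed onto covering soil over sown seeds at 600 l/ha water with 0.5% additive, at rates corresponding to 320 g/ha and/or 80 g/ha. Visual % activity versus untreated controls after about 3 weeks (100% = plants dead).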

Another experiment has as its system STEME. Kind of experiment: Herbicidal pre-emergence action 2b (doubly sown, 1280 g/ha). The following applies: doubly sown pots, dosage 1280 g/ha, visual scoring after about 3 weeks. In kind it is in vivo, Stellaria media. Put shortly:
as §1

In a further experiment the test system is POAAN. The experiment is described as above. In kind it is in vivo, Poa annua. The following applies: doubly sown pots, dosage 1280 g/ha, visual scoring after about 3 weeks. The gist of the method: as §1
For experiment [3], the system named is ECHCG. Described as above. It counts as in vivo, Echinochloa crus-galli. To be noted: doubly sown pots, dosage 1280 g/ha, visual scoring after about 3 weeks. Put shortly: as §1
The next experiment concerns harmful plants. Nature of the experiment: Herbicidal pre-emergence action 2a, summary across species. It counts as in vivo. To be noted: Tables B1 to B15 (320 g/ha and/or 80 g/ha). The source says:
a) Seeds of monocotyledonous and dicotyledonous weed plants and crop plants are placed in plastic or organic plant pots and covered with soil. The compounds of the invention, formulated in the form of wettable powders (WP) or as emulsion concentrates (EC), are then applied onto the surface of the covering soil as aqueous suspension or emulsion with addition of 0.5% additive at a water application rate of 600 1/ha (converted). After the treatment, the pots are placed in a greenhouse and kept under good growth conditions for the trial plants. After about 3 weeks, the effect of the preparations is scored visually in comparison with untreated controls as percentages. For example, 100% activity=the plants have died, 0% activity=like control plants.
Tables B1 to B15 below show the effects of selected compounds of the general formula (I) according to Tables 1 and 2 on various harmful plants and an application rate corresponding to 320 g/ha and/or 80 g/ha, which were obtained by the experimental procedure mentioned above.
For example, compound nos. I-07, I-08, I-11, I-12, I-13, I-16, I-17, I-20, I-36, I-37, I-39, I-45, I-46, I-48, I-52 and I-53 in the pre-emergence method have very good action (80% to 100% herbicidal activity) against harmful plants such as Alopecurus myosuroides, Amaranthus retroflexus, Digitaria sanguinalis, Lolium rigidum, Polygonum convolvulus, Setaria viridis, Veronica persica and Viola tricolor at an application rate of 0.32 kg of active substance per hectare.

Experiment [4] concerns ECHCG. Nature of the experiment: Herbicidal pre-emergence action 2a (greenhouse pots, visual scoring). It counts as in vivo, Echinochloa crus-galli. The following applies: dosage 320 g/ha, visual scoring after about 3 weeks. The gist of the method: as §3
Experiment [5] relates to VERPE. The experiment is described as above. The following applies: dosage 320 g/ha, visual scoring after about 3 weeks vs untreated controls. In kind it is in vivo, Veronica persica. The gist of the method:
as §3

Experiment [6] relates to MATIN. The experiment is described as above. In kind it is in vivo, Matricaria inodora. To be noted: dosage 320 g/ha, visual scoring after about 3 weeks vs untreated controls. Put shortly:
as §3

A further experiment deals with ABUTH. Nature of the experiment: Herbicidal post-emergence action 1a (greenhouse pots, visual rating). It counts as in vivo, Abutilon theophrasti. To be noted: dosage 320 g/ha, visual rating about 3 weeks after treatment. Put shortly:
as §2

Experiment [7] concerns ECHCG. The description is as above. In kind it is in vivo, Echinochloa crus-galli. The following applies: Dosage 320 g/ha; rated visually about 3 weeks after treatment; 100% = plants have died, 0% = like control plants. Put shortly: as §2

With `COC(=O)C(C)Oc1nn(-c2cnccn2)c(-c2ccc(F)c(F)c2)c1C#N` (racemic) [Example I-22], the “Pre-emergence action at 1280 g/ha against MATIN in %” value in the experiment with MATIN [1] amounted to 90%. For the same compound, the “Post-emergence action against VERPE in %” value in the experiment on VERPE [2] (dosage 80 g/ha) is given as 80%; with VERPE [2] (dosage 320 g/ha), 90%. For the same compound, the “Post-emergence action against POLCO in %” value in the experiment on POLCO (dosage 320 g/ha) is recorded as 80%. In addition, in the experiment on DIGSA, the “Pre-emergence action against DIGSA in %” value was 100%. In addition, in the experiment with STEME, the “Pre-emergence action at 1280 g/ha against STEME in %” value is listed as 100%. In addition, the “Pre-emergence action at 1280 g/ha against POAAN in %” value with POAAN came to 100%. In addition, the “Pre-emergence action at 1280 g/ha against ECHCG in %” value in the experiment with ECHCG [3] is 100%. Besides, in the experiment with harmful plants, the “herbicidal efficacy against harmful plants in the case of pre-emergence treatment (in words)” value (from here on “herbicidal efficacy”) is given as “good herbicidal efficacy”.
On to `COC(=O)[C@@H](C)Oc1nn(-c2cnccn2)c(-c2ccc(F)nc2)c1Cl` [Example I-36], for which the “Pre-emergence action at 1280 g/ha against MATIN in %” value in the experiment on MATIN [1] was found to be 90%. The “Post-emergence action against VERPE in %” value in the experiment with VERPE [2] (dosage 320 g/ha) came to 90%. The “Post-emergence action against POLCO in %” value in the experiment on POLCO (dosage 80 g/ha) is listed as 90%; in the experiment on POLCO (dosage 320 g/ha) it was 100%. Besides, the “Pre-emergence action against DIGSA in %” value in the experiment on DIGSA was determined as 100%. Further, the “Pre-emergence action at 1280 g/ha against STEME in %” value with STEME worked out at 100%. For the same compound, in the experiment with POAAN, the “Pre-emergence action at 1280 g/ha against POAAN in %” value is recorded as 100%. In the experiment with ECHCG [4], the “Pre-emergence action against ECHCG in %” value was 100%. The “Pre-emergence action at 1280 g/ha against ECHCG in %” value in the experiment with ECHCG [3] is 90%. The “Pre-emergence action against VERPE in %” value with VERPE [5] was 100%. Moreover, in the experiment with harmful plants, the “herbicidal efficacy” value was “good herbicidal efficacy”. Further, the “Pre-emergence action against MATIN in %” value in the experiment on MATIN [6] is 80%. For the same compound, the “Post-emergence action against ABUTH in %” value in the experiment with ABUTH was found to be 80%.
On to `COC(=O)[C@@H](C)Oc1nn(-c2cnccn2)c(-c2ccc(F)c(F)c2)c1Br` [Example I-45], for which the “Pre-emergence action at 1280 g/ha against MATIN in %” value in the experiment on MATIN [1] turned out to be 100%. In the experiment with VERPE [2] (dosage 320 g/ha), the “Post-emergence action against VERPE in %” value was 80%. For the same compound, the “Post-emergence action against POLCO in %” value in the experiment on POLCO (dosage 320 g/ha) is recorded as 100%. For the same compound, the “Pre-emergence action against DIGSA in %” value in the experiment on DIGSA was determined as 100%. For the same compound, the “Pre-emergence action at 1280 g/ha against STEME in %” value in the experiment on STEME stood at 100%. Further, in the experiment on POAAN, the “Pre-emergence action at 1280 g/ha against POAAN in %” value is given as 100%. The “Pre-emergence action at 1280 g/ha against ECHCG in %” value in the experiment with ECHCG [3] is 100%. For the same compound, the “Post-emergence action against ECHCG in %” value in the experiment on ECHCG [7] is 80%. In addition, the “Pre-emergence action against VERPE in %” value with VERPE [5] was determined as 80%. In addition, the “herbicidal efficacy” value with harmful plants was “good herbicidal efficacy”. The “Pre-emergence action against MATIN in %” value with MATIN [6] was 100%. Further, the “Post-emergence action against ABUTH in %” value in the experiment with ABUTH is 80%.
Consider `COC(=O)[C@@H](C)Oc1nn(-c2cnccn2)c(-c2ccc(F)c(F)c2)c1C#N` [Example I-46], for which the “Pre-emergence action at 1280 g/ha against MATIN in %” value with MATIN [1] worked out at 100%. Further, the “Post-emergence action against VERPE in %” value with VERPE [2] (dosage 320 g/ha) was 80%. For the same compound, in the experiment on POLCO (dosage 320 g/ha), the “Post-emergence action against POLCO in %” value amounted to 100%. In addition, the “Pre-emergence action against DIGSA in %” value in the experiment with DIGSA amounted to 100%. In addition, the “Pre-emergence action at 1280 g/ha against STEME in %” value with STEME was found to be 100%. Moreover, the “Pre-emergence action at 1280 g/ha against POAAN in %” value in the experiment with POAAN came out at 100%. Also, in the experiment with ECHCG [4], the “Pre-emergence action against ECHCG in %” value came out at 100%. The “Pre-emergence action at 1280 g/ha against ECHCG in %” value with ECHCG [3] was found to be 100%. In addition, the “Pre-emergence action against VERPE in %” value in the experiment on VERPE [5] is 100%. Further, in the experiment on harmful plants, the “herbicidal efficacy” value was “good herbicidal efficacy”. For the same compound, the “Pre-emergence action against MATIN in %” value in the experiment with MATIN [6] is reported as 100%.
